Molecules are shown by their SMILES. Where a name gives a salt, the structure may show the parent alone. Some results are limits rather than exact numbers.

Test [1] addresses IDO1 in HeLa cells (Homo sapiens (Human), UniProt P14902). The test is described as follows: HeLa cell based IDO1 assay (IFNγ-induced, KYN in supernatant). In a few lines:
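Kynurenine in the supernatant, quantified by C-18 HPLC with 360 nm absorbance after TCA hydrolysis (65 °C, 15 min), was the read-out. Compounds (typically 10 μM to 1 nM) were added in HBSS containing 80 μM tryptophan to HeLa cells pre-induced overnight with 50 ng/mL IFNγ. IC50 came from nonlinear fits of % inhibition versus 1% DMSO vehicle.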

The target in test [2] is Human indoleamine 2,3-dioxygenase1 (hIDO1) (Homo sapiens (Human), UniProt P14902). As to the kind of experiment: In-vitro IDO1 enzyme assay (conversion of L-tryptophan to KYN). The test is classed as biochemical. To be noted: read-out: IC50 (IDO1) Enz. In a few lines: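 Kynurenine formation quantified by HPLC absorbance at 360 nm or LC/MS/MS after TCA quench and 15 min at 65 °C. Reaction: 10 nM N-His hIDO1, 30 μM tryptophan, ascorbate/methylene blue/catalase, pH 6.5 phosphate buffer, 37 °C for 30 min. Inhibition relative to 1% DMSO vehicle, fitted to IC50.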

In test [3] the target is Human TDO (hTDO)-transfected CHO-K1 cells (Homo sapiens (Human), UniProt P48775). As to the kind of experiment: CHO-K1 cell based TDO assay. To be noted: hTDO cellular assay. In a few lines: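 Kynurenine output was read by LC/MS/MS after TCA precipitation and 15 min at 65° C. Before that, CHO-K1 cells stably carrying human TDO2 were incubated 2 h with compounds (typically 31 μM to 10 nM) and 80 μM L-tryptophan in HBSS. Decrease versus DMSO vehicle gave percent inhibition, then IC50.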
Sequence of Human TDO (hTDO)-transfected CHO-K1 cells (P48775 whole entry): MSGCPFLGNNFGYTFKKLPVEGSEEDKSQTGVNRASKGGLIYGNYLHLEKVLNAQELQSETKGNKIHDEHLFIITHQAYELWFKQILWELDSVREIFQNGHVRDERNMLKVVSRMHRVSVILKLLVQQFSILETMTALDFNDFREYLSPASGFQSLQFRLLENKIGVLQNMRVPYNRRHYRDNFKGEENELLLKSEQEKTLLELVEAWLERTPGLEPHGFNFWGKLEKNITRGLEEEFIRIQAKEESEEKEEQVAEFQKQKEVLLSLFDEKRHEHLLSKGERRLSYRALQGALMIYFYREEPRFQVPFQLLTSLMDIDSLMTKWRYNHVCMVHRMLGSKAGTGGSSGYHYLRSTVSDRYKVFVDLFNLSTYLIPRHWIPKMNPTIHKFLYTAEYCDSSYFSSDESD

Sequence of Human indoleamine 2,3-dioxygenase1 (hIDO1) (P14902 whole entry): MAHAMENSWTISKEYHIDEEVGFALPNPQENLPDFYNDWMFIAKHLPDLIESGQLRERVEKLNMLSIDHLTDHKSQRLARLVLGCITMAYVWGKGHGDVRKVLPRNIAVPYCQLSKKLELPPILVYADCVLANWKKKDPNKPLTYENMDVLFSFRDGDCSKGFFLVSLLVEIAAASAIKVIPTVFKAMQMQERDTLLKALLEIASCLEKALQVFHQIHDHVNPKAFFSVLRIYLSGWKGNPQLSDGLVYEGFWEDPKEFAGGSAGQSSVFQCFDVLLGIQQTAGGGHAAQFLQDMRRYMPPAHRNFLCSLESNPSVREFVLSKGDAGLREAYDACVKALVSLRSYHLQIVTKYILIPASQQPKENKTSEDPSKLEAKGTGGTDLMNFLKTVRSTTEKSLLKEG
Sequence of IDO1 in HeLa cells (P14902 whole entry): as above

Take `Nc1oc2cnc(F)cc2c1Nc1ccc(F)cc1` [Compound 228, 5-Fluoro-N^3-(4-fluorophenyl)furo[2,3-c]pyridine-2,3-diamine]: the results for the IC50 in test [1], in test [2] and in test [3] were under 0.2 µM, under 0.2 µM and under 0.5 µM, respectively.

Take `Cc1ncc(C)c2c(Nc3ccc(F)c(Cl)c3)c(N)oc12` [Compound 72, N^3-(3-chloro-4-fluorophenyl)-4,7-dimethylfuro[2,3-c]pyridine-2,3-diamine]: the IC50 in test [1] fell in the range of 0.2 to 1 µM; in test [2] it was 0.2 to 1 µM; in test [3] it was 0.5 to 2 µM.

`Nc1oc2c(-c3ccnc(C(=O)Nc4ccccn4)c3)nccc2c1Nc1ccc(F)c(Cl)c1` [Compound 273, 4-(2-Amino-3-((3-chloro-4-fluorophenyl)amino)furo[2,3-c]pyridin-7-yl)-N-(pyridin-2-yl)picolinamide]: the IC50 in test [1] was under 0.2 µM; in test [2], under 0.2 µM; in test [3], over 2 µM.

Regarding `Cc1cc(-c2nc(F)cc3c(Nc4ccc(F)c(F)c4)c(N)oc23)ccn1` [Compound 246, N^3-(3,4-Difluorophenyl)-5-fluoro-7-(2-methylpyridin-4-yl)furo[2,3-c]pyridine-2,3-diamine], the IC50 is under 0.2 µM in test [1], under 0.2 µM in test [2] and 0.5 to 2 µM in test [3].

As to `Nc1oc2cnc(F)cc2c1Nc1cccc(Cl)c1` [Compound 220, N^3-(3-Chlorophenyl)-5-fluorofuro[2,3-c]pyridine-2,3-diamine], the IC50 was under 0.2 µM in test [1], under 0.2 µM in test [2] and under 0.5 µM in test [3].

With `Nc1oc2cnc(F)cc2c1Nc1ccccc1Cl` [Compound 218, N^3-(2-Chlorophenyl)-5-fluorofuro[2,3-c]pyridine-2,3-diamine], the IC50 in test [1] is under 0.2 µM; in test [2], 0.2 to 1 µM; in test [3] it was 0.5 to 2 µM.

Consider `C#Cc1cccc(Nc2c(N)oc3cnccc23)c1` [Compound 68, N^3-(3-Ethynylphenyl)furo[2,3-c]pyridine-2,3-diamine], for which the IC50 in test [1] is under 0.2 µM; in test [2], 0.2 to 1 µM; in test [3], 0.5 to 2 µM.

On to `COc1ccccc1-c1nccc2c(Nc3ccc(F)c(F)c3)c(N)oc12` [Compound 196, N^3-(3,4-Difluorophenyl)-7-(2-methoxyphenyl)furo[2,3-c]pyridine-2,3-diamine], for which the IC50 in test [1] is under 0.2 µM; in test [2], 0.2 to 1 µM; in test [3], under 0.5 µM.

As for `C#Cc1cc(Nc2c(N)oc3c(-c4ccccc4)nccc23)ccc1F` [Compound 110, N^3-(3-Ethynyl-4-fluorophenyl)-7-phenylfuro[2,3-c]pyridine-2,3-diamine], the IC50 is under 0.2 µM in test [1], under 0.2 µM in test [2] and 0.5 to 2 µM in test [3].

Consider `Cc1cc(-c2nccc3c(Nc4ccccc4)c(N)oc23)ccn1` [Compound 239, 7-(2-Methylpyridin-4-yl)-N^3-phenylfuro[2,3-c]pyridine-2,3-diamine], for which the IC50 in test [1] was under 0.2 µM; in test [2], under 0.2 µM; in test [3] it was under 0.5 µM.

As for `COc1cc2c(Nc3ccc(F)c(Cl)c3)c(N)oc2c(-c2ccc(C#N)cc2)n1` [Compound 173, 4-(2-Amino-3-((3-chloro-4-fluorophenyl)amino)-5-methoxyfuro[2,3-c]pyridin-7-yl)benzonitrile], the IC50 in test [1] was under 0.2 µM; in test [2], under 0.2 µM; in test [3], over 2 µM.

As to `Cc1cc(Cl)cc(Nc2c(N)oc3cnccc23)c1` [Compound 87, N^3-(3-Chloro-5-methylphenyl)furo[2,3-c]pyridine-2,3-diamine], the IC50 was in the range of 0.2 to 1 µM in test [1], 0.2 to 1 µM in test [2] and 0.5 to 2 µM in test [3].

As for `Cc1ccc2sc(N)c(Nc3ccc(F)c(F)c3)c2c1` [Compound 215, N^3-(3,4-difluorophenyl)-5-methylbenzo[b]thiophene-2,3-diamine], the IC50 is under 0.2 µM in test [1], 0.2 to 1 µM in test [2] and over 2 µM in test [3].

Regarding `Nc1sc2ccc(Cl)cc2c1Nc1cccc(C(F)(F)F)c1` [Compound 133, 5-Chloro-N^3-(3-(trifluoromethyl)phenyl)benzo[b]thiophene-2,3-diamine hydrochloride], the IC50 in test [1] lay in the range of 0.2 to 1 µM; in test [2], 0.2 to 1 µM; in test [3], 0.5 to 2 µM.

Turning to `Nc1oc2c[n+]([O-])ccc2c1Nc1ccc(F)c(Cl)c1` [Compound 260, 2-Amino-3-((3-chloro-4-fluorophenyl)amino)furo[2,3-c]pyridine 6-oxide], the values for the IC50 in test [1], in test [2] and in test [3] were 0.2 to 1 µM, 0.2 to 1 µM and 0.5 to 2 µM, respectively.

Regarding `Nc1oc2cnccc2c1Nc1cc(Cl)c(F)cc1F` [Compound 51, N^3-(5-Chloro-2,4-difluorophenyl)furo[2,3-c]pyridine-2,3-diamine], the IC50 was under 0.2 µM in test [1], over 1 µM in test [2] and over 2 µM in test [3].

`Nc1oc2cnccc2c1Nc1ccc2c(c1)CCCC2` [Compound 71, N^3-(5,6,7,8-Tetrahydronaphthalen-2-yl)furo[2,3-c]pyridine-2,3-diamine]: the IC50 in test [1] is under 0.2 µM; in test [2] it was over 1 µM; in test [3], over 2 µM.

With `Nc1oc2c(F)nc(F)cc2c1Nc1ccc(F)c(Cl)c1` [Compound 190, N^3-(3-Chloro-4-fluorophenyl)-5,7-difluorofuro[2,3-c]pyridine-2,3-diamine], the IC50 was under 0.2 µM in test [1], under 0.2 µM in test [2] and 0.5 to 2 µM in test [3].

Consider `Nc1sc2ccccc2c1Nc1cccc(Br)c1` [Compound 230, N^3-(3-Bromophenyl)benzo[b]thiophene-2,3-diamine], for which the IC50 was under 0.2 µM in test [1], under 0.2 µM in test [2] and 0.5 to 2 µM in test [3].

For the compound `CCCCCNC(=O)c1cc(-c2nccc3c(Nc4ccc(F)c(Cl)c4)c(N)oc23)ccn1` [Compound 275, 4-(2-Amino-3-((3-chloro-4-fluorophenyl)amino)furo[2,3-c]pyridin-7-yl)-N-pentylpicolinamide], the results for the IC50 in test [1], in test [2] and in test [3] were 0.2 to 1 µM, under 0.2 µM and over 2 µM, respectively.

As for `Nc1oc2c(-c3cc(F)ccc3Cl)nccc2c1Nc1ccc(F)c(Cl)c1` [Compound 276, N^3-(3-Chloro-4-fluorophenyl)-7-(2-chloro-5-fluorophenyl)furo[2,3-c]pyridine-2,3-diamine], the figures for the IC50 in test [1], in test [2] and in test [3] were under 0.2 µM, under 0.2 µM and 0.5 to 2 µM, respectively.

Take `Nc1oc2cnccc2c1Nc1cc(F)c(F)c(Br)c1` [Compound 22, N^3-(3-Bromo-4,5-difluorophenyl)furo[2,3-c]pyridine-2,3-diamine]: the IC50 was 0.2 to 1 µM in test [1], over 1 µM in test [2] and over 2 µM in test [3].

With `Nc1oc2c(-c3ccccc3)nccc2c1Nc1cccc(C(F)(F)F)c1` [Compound 82, 7-Phenyl-N^3-(3-(trifluoromethyl)phenyl)furo[2,3-c]pyridine-2,3-diamine], the IC50 in test [1] was under 0.2 µM; in test [2], under 0.2 µM; in test [3], over 2 µM.

With `Cc1cc(Br)ccc1Nc1c(N)sc2ccccc12` [Compound 237, N^3-(4-Bromo-2-methylphenyl)benzo[b]thiophene-2,3-diamine], the IC50 in test [1] is 0.2 to 1 µM; in test [2], over 1 µM; in test [3], over 2 µM.

`Nc1oc2c(-c3cccc(C(F)(F)F)c3)nccc2c1Nc1ccc(F)c(Cl)c1` [Compound 199, N^3-(3-Chloro-4-fluorophenyl)-7-(3-(trifluoromethyl)phenyl)furo[2,3-c]pyridine-2,3-diamine]: the IC50 is under 0.2 µM in test [1], under 0.2 µM in test [2] and over 2 µM in test [3].

Regarding `COc1cncc2oc(N)c(Nc3ccc(F)c(Cl)c3)c12` [Compound 67, N^3-(3-Chloro-4-fluoro-phenyl)-4-methoxy-furo[2,3-c]pyridine-2,3-diamine], the IC50 in test [1] is under 0.2 µM; in test [2], over 1 µM; in test [3], 0.5 to 2 µM.

On to `CNC(=O)c1cc(-c2nccc3c(Nc4ccc(F)c(C(F)(F)F)c4)c(N)oc23)ccn1` [Compound 227, 4-(2-amino-3-((4-fluoro-3-(trifluoromethyl)phenyl)amino)furo[2,3-c]pyridin-7-yl)-N-methylpicolinamide], for which the IC50 is under 0.2 µM in test [1], under 0.2 µM in test [2] and over 2 µM in test [3].

Regarding `N#Cc1nccc2c(Nc3ccc(F)c(F)c3)c(N)oc12` [Compound 185, 2-Amino-3-((3,4-difluorophenyl)amino)furo[2,3-c]pyridine-7-carbonitrile], the IC50 in test [1] was under 0.2 µM; in test [2], 0.2 to 1 µM; in test [3], under 0.5 µM.

Regarding `Cc1cccc(Nc2c(N)oc3cc(C#N)ccc23)c1` [Compound 114, 2-Amino-3-(m-tolylamino)benzofuran-6-carbonitrile], the IC50 in test [1] was under 0.2 µM; in test [2], 0.2 to 1 µM; in test [3], over 2 µM.

On to `CC(C)(C)NC(=O)c1cc(-c2nccc3c(Nc4ccc(F)c(Cl)c4)c(N)oc23)ccn1` [Compound 251, 4-(2-Amino-3-((3-chloro-4-fluorophenyl)amino)furo[2,3-c]pyridin-7-yl)-N-(tert-butyl)picolinamide], for which the results for the IC50 in test [1], in test [2] and in test [3] were under 0.2 µM, under 0.2 µM and over 2 µM, respectively.

Source of the values: patent US10294212B2 (CURADEV PHARMA PRIVATE LTD., priority 2013, dated 2019).
